What was measured:
Type in all cases: in vivo
Echinochloa crus-galli [1] = assay: Pre-emergence herbicidal efficacy, ECHCG; conditions: Table B1, application rate 320 g/ha, scored visually after about 3 weeks vs untreated controls
How it was run: (§1)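 Visual percent activity relative to untreated plants (0% = like control, 100% = dead), scored about 3 weeks after treatment under greenhouse conditions.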

Lolium rigidum [2] = assay: Pre-emergence herbicidal efficacy, LOLRI; conditions: Table B1, application rate 320 g/ha, scored visually after about 3 weeks vs untreated controls
How it was run: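 Seeds sown in pots and covered with soil. Greenhouse-grown about 3 weeks, then visually scored as % activity vs untreated controls (100% = dead, 0% = like control).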

Setaria viridis [3] = assay: Pre-emergence herbicidal efficacy, SETVI; conditions: Table B1, application rate 320 g/ha, scored visually after about 3 weeks vs untreated controls
How it was run: as §1

Abutilon theophrasti [4] = assay: Pre-emergence herbicidal efficacy, ABUTH; conditions: Table B1, application rate 320 g/ha, scored visually after about 3 weeks vs untreated controls
How it was run: as §1

Amaranthus retroflexus [5] = assay: Pre-emergence herbicidal efficacy, AMARE; conditions: Table B1, application rate 320 g/ha, scored visually after about 3 weeks vs untreated controls
How it was run: as §1

Matricaria inodora = assay: Pre-emergence herbicidal efficacy, MATIN; conditions: Table B1, application rate 320 g/ha, scored visually after about 3 weeks vs untreated controls
How it was run: as §1

Polygonum convolvulus = assay: Pre-emergence herbicidal efficacy, POLCO; conditions: Table B1, application rate 320 g/ha, scored visually after about 3 weeks vs untreated controls
How it was run: as §1

Stellaria media [6] = assay: Pre-emergence herbicidal efficacy, STEME; conditions: Table B1, application rate 320 g/ha, scored visually after about 3 weeks vs untreated controls
How it was run: as §1

Viola tricolor [7] = assay: Pre-emergence herbicidal efficacy, VIOTR; conditions: Table B1, application rate 320 g/ha, scored visually after about 3 weeks vs untreated controls
How it was run: as §1

Veronica persica [8] = assay: Pre-emergence herbicidal efficacy, VERPE; conditions: Table B1, application rate 320 g/ha, scored visually after about 3 weeks vs untreated controls
How it was run: as §1

Setaria viridis [9] = assay: Post-emergence herbicidal efficacy, SETVI; conditions: Table B6, one-leaf stage, application rate 320 g/ha, rated visually after about 3 weeks vs untreated controls
Text: (§2) ABUTH: Abutilon theophrasti ALOMY: Alopecurus myosuroides AMARE: Amaranthus retroflexus AVEFA: Avena fatua CYPES: Cyperus esculentus ECHCG: Echinochloa crus-galli LOLMU: Lolium multiflorum MATIN: Matricaria inodora PHBPU: Ipomoea purpurea POLCO: Polygonum convolvulus SETVI: Setaria viridis STEME: Stellaria media VERPE: Veronica persica VTOTR: Viola tricolor
(§3) C.2 Post-Emergence Herbicidal Action and Crop Plant Compatibility
(§4) Seeds of monocotyledonous and dicotyledonous weeds and crop plants are placed in sandy loam in plastic or organic planting pots, covered with soil and cultivated in a greenhouse under controlled growth conditions. 2 to 3 weeks after sowing, the test plants are treated at the one-leaf stage. The compounds of the invention, formulated in the form of wettable powders (WP) or as emulsion concentrates (EC), are then sprayed onto the green parts of the plants as aqueous suspension or emulsion with addition of 0.5% additive at a water application rate of […] (converted). After the test plants had been kept in the greenhouse under optimum growth conditions for about 3 weeks, the activity of the preparations is rated visually in comparison to untreated controls. For example, 100% activity=the plants have died, 0% activity=like control plants.

Abutilon theophrasti [10] = assay: Post-emergence herbicidal efficacy, ABUTH; conditions: Table B6, one-leaf stage, application rate 320 g/ha, rated visually after about 3 weeks vs untreated controls
Text: as §2, §3, §4

Amaranthus retroflexus [11] = assay: Post-emergence herbicidal efficacy, AMARE; conditions: application rate 320 g/ha
Text: as §2, §3, §4

Veronica persica [12] = assay: Post-emergence herbicidal efficacy, VERPE; conditions: application rate 320 g/ha
Text: as §2, §3, §4

harmful plants [13] = assay: Pre-emergence herbicidal action; conditions: applied pre-emergence
Text: C.1 Pre-Emergence Herbicidal Action and Crop Plant Compatibility
Seeds of monocotyledonous and dicotyledonous weed plants and crop plants are placed in plastic or organic planting pots and covered with soil. The compounds of the invention, formulated in the form of wettable powders (WP) or as emulsion concentrates (EC), are then applied onto the surface of the covering soil as aqueous suspension or emulsion with addition of 0.5% additive at a water application rate of […] (converted). After the treatment, the pots are placed in a greenhouse and kept under good growth conditions for the trial plants. After about 3 weeks, the effect of the preparations is scored visually in comparison with untreated controls as percentages. For example, 100% activity=the plants have died, 0% activity=like control plants.

Echinochloa crus-galli [14] = assay: Post-emergence herbicidal efficacy, ECHCG; conditions: application rate 320 g/ha, rated visually after about 3 weeks
Text: as §2, §3, §4

Lolium rigidum [15] = assay: Post-emergence herbicidal efficacy, LOLRI; conditions: application rate 320 g/ha, rated visually after about 3 weeks
Method: as §3, §4

Stellaria media [16] = assay: Post-emergence herbicidal efficacy, STEME; conditions: application rate 320 g/ha, rated visually after about 3 weeks
Text: as §2, §3, §4

Viola tricolor [17] = assay: Post-emergence herbicidal efficacy, VIOTR; conditions: application rate 320 g/ha, rated visually after about 3 weeks (Table B5)
Text: as §2, §3, §4

harmful plants [18] = assay: Post-emergence herbicidal action; conditions: applied post-emergence
Method: as §3, §4

[19] = Table B6, one-leaf stage, rated visually after about 3 weeks vs untreated controls
[20] = rated visually after about 3 weeks
[21] = rated visually after about 3 weeks (Table B5)

| Structure (SMILES) | Herbicidal efficacy against ECHCG (Echinochloa crus-galli [1]) [%] | Herbicidal efficacy against LOLRI (Lolium rigidum [2]) [%] | Herbicidal efficacy against SETVI (Setaria viridis [3]) [%] | Herbicidal efficacy against ABUTH (Abutilon theophrasti [4]) [%] | Herbicidal efficacy against AMARE (Amaranthus retroflexus [5]) [%] | Herbicidal efficacy against MATIN (Matricaria inodora) [%] | Herbicidal efficacy against POLCO (Polygonum convolvulus) [%] | Herbicidal efficacy against STEME (Stellaria media [6]) [%] | Herbicidal efficacy against VIOTR (Viola tricolor [7]) [%] | Herbicidal efficacy against VERPE (Veronica persica [8]) [%] | Herbicidal efficacy against SETVI (Setaria viridis [9]) [%] | Herbicidal efficacy against ABUTH (Abutilon theophrasti [10]) [%] | Herbicidal efficacy against AMARE (Amaranthus retroflexus [11]; [19]) [%] | Herbicidal efficacy against VERPE (Veronica persica [12]; [19]) [%] | Herbicidal efficacy against ECHCG (Echinochloa crus-galli [14]) [%] | Herbicidal efficacy against LOLRI (Lolium rigidum [15]) [%] | Herbicidal efficacy against AMARE (Amaranthus retroflexus [11]; [20]) [%] | Herbicidal efficacy against STEME (Stellaria media [16]) [%] | Herbicidal efficacy against VIOTR (Viola tricolor [17]) [%] | Herbicidal efficacy against VERPE (Veronica persica [12]; [21]) [%] | other results |
| --- | --- | --- | --- | --- | --- | --- | --- | --- | --- | --- | --- | --- | --- | --- | --- | --- | --- | --- | --- | --- | --- |
| CC(=O)N1CCn2nc(N[C@@H]3CCCc4ccc(C)cc43)nc2C1 [Example I-180] | 100 | 100 | 100 | 100 | 100 | 100 | 100 | 100 | 100 | 100 | 80 | 80 | 80 | 80 |  |  |  |  |  |  |  |
| Cc1ccc2c(c1)[C@H](Nc1nc3n(n1)CCN(S(=O)(=O)C(C)C)C3)CCC2 [Example I-199] | 100 | 100 | 100 | 100 | 100 | 100 | 100 | 100 | 100 | 100 |  |  |  |  |  |  |  |  |  |  | herbicidal efficacy against harmful plants (harmful plants [13]): very good herbicidal efficacy |
| Cc1ccc2c(c1)C(Nc1nc3n(n1)CCCCS3)CCC2 (stereo not shown) [Example I-214] | 100 | 100 | 100 | 100 | 100 | 100 | 100 | 100 | 100 | 100 | 100 | 80 | 80 | 100 |  |  |  |  |  |  |  |
| Cc1ccc2c(c1)C(Nc1nc3n(n1)CCCCS3(=O)=O)CC2 (stereo not shown) [Example I-232] | 100 | 100 | 100 | 100 | 100 | 100 | 100 | 100 | 100 | 100 |  |  |  |  | 80 | 90 | 100 | 100 | 90 | 90 |  |
| Cc1ccc2c(c1)C(Nc1nc3n(n1)CCCCS3)CC2 (stereo not shown) [Example I-248] | 100 | 100 | 100 | 100 | 100 | 100 | 100 | 100 | 100 | 100 |  |  |  |  | 100 | 100 | 90 | 100 | 90 | 90 | herbicidal efficacy against harmful plants (harmful plants [18]): very good herbicidal efficacy |
| Cc1ccc2c(c1)[C@H](Nc1nc3n(n1)CCCCS3)CC2 [Example I-353] | 100 | 100 | 100 | 100 | 100 | 100 | 100 | 100 | 100 | 100 |  |  |  |  | 100 | 100 | 90 | 100 | 80 | 90 | herbicidal efficacy against harmful plants (harmful plants [18]): very good herbicidal efficacy |
| Cc1ccc2c(c1)C(Nc1nc3n(n1)CCCCS3)C(C)C2 (stereo not shown) [Example I-354] | 100 | 100 | 100 | 100 | 100 | 100 | 100 | 100 | 100 | 100 |  |  |  |  | 100 | 100 | 80 | 100 | 80 | 100 |  |
| Cc1ccc2c(c1)C(Nc1nc3n(n1)CCCCS3(=O)=O)C(C)C2 (stereo not shown) [Example I-366] | 100 | 100 | 100 | 100 | 100 | 100 | 100 | 100 | 100 | 100 |  |  |  |  | 100 | 90 | 80 | 90 |  |  |  |
| Cc1ccc2c(c1)[C@H](Nc1nc3n(n1)CCCCS3)CCO2 [Example I-377] | 100 | 100 | 100 | 100 | 100 | 100 | 100 | 100 | 100 | 100 | 90 | 80 | 80 | 90 |  |  |  |  |  |  |  |
| Cc1ccc2c(c1)[C@H](Nc1nc3n(n1)CCCCS3)CCC2 [Example I-402] | 100 | 100 | 100 | 100 | 100 | 100 | 100 | 100 | 100 | 100 |  |  |  |  | 100 |  | 90 | 90 | 90 | 90 |  |

Reference: patent publication US20200331904A1, “3-AMINO-[1,2,4]-TRIAZOLE DERIVATIVES AND THEIR USE FOR CONTROLLING UNDESIRED PLANT GROWTH” (Bayer CropScience Aktiengesellschaft, priority 2017, published 2020)
